Test results taken from patent publication US9868715B2 (THE BOARD OF REGENTS OF THE UNIVERSITY OF TEXAS SYSTEMS, priority 2014, dated 2018).

Experiments:
[1] = tested on: transformed PSC (human pancreatic stellate cells); assay: PSC apoptosis, Cell Death Detection ELISA PLUS assay; type: cell-based; conditions: 14 h; for EC50: mean±SEM of at least three experiments
Method: These two representative analogues were also investigated to determine whether the growth inhibition induced by compounds 23 and 24 in PSC was attributed to apoptosis. Apoptosis was determined using the Cell Death Detection ELISA^PLUS assay. This sandwich-enzyme-immunoassay involved antibodies binding to cytoplasmic nucleosomes, which were specific to the process of apoptosis rather than necrosis. […] Next, the dose-response curve was generated (FIG. 3B). The EC50 represented the concentration at which the compound yielded half of the maximal amount of cell death. […] The capacity of the compounds to induce cell death in activated PSC would most likely translate into reduced fibrosis in CP. […] Under an IRB-approved tissue protocol, discarded human resected pancreatic tissue (500 mm^3) was attained fresh from the operating room at the University of Texas Medical Branch. The tissue was minced and plated on a collagen-coated flask (15 μg/mL, Invitrogen) with DMEM (VWR; Radnor, Pa.) supplemented with penicillin 200 U/mL, streptomycin 200 μg/mL, amphotericin B 0.25 μg/mL and gentimicin 50 μg/mL (Invitrogen, Carlsbad Calif.), 10% fetal bovine serum (Lonza, Walkersville, Md.), 1% insulin-transferrin, selenium-ethanolamine (Gibco, Grand Island, N.Y.), and 1% non-essential amino acids (Sigma-Aldrich, St. Louis, Mo.). The human PSC were isolated by the outgrowth method.^41-43 The purity of PSC culture was confirmed by immunohistochemical staining for vimentin, α-smooth muscle actin, glial fibrillar acidic protein, or Oil red O staining. Primary PSC were transformed and immortalized for use in experiments using lentiviral vectors containing SV40 Large T antigen and human telomerase (plasmid #12245 and 12246; Addgene, Cambridge, Mass.). Cultures were maintained in DMEM with 10% FBS, at 37° C. in a humidified […] atmosphere. Cell death assay. Transformed PSC (8×10^3) were plated in 96-well plates in triplicate. […] The Cell Death Detection ELISA^PLUS assay (Roche Applied Science, Indianapolis, Ind.) was used and protocol followed (Version 11.0). Absorbance was measured at 405 nm, using the EL×800 Automated Microplate Reader (Bio-TEK Instruments, Inc., Winooski, Vt.). Statistical analysis. Dose-response curves were generated by plotting fluorescence or absorbance versus log (compound concentration). A best-fit curve was created using nonlinear regression, and the IC50 or EC50 determined from the graph (GraphPad Prism 5; GraphPad Software Inc., La Jolla, Calif.). To analyze continuos variables, unpaired student t-tests and one-way ANOVA with Tukey-Kramer multiple comparisons post-test (GraphPad Prism 5). Significance was set at p<0.05.

[2] = tested on: transformed PSC (human pancreatic stellate cells); assay: PSC proliferation, AlamarBlue Cell Viability Assay; type: cell-based; conditions: for inhibition at 5 µM / inhibition at 10 µM / inhibition at 20 µM: Homo sapiens, mean of at least three independent experiments, NE = No effect, read-out: Inhibitory Effect (%) on PSC proliferation; for IC50: human PSC, 24 h, mean±SEM of at least three experiments, read-out: IC50, inhibition of PSC proliferation; for IC50 / Antiproliferative effect on PSC, result in words: AlamarBlue; for Antiproliferative effect on PSC, result in words: transformed PSC
Method: The calculated lipophilicity (cLogP) and topological polar surface area (tPSA) values of synthesized analogues are listed in Table 1. […] AlamarBlue is a non-toxic reagent that is converted to a highly fluorescent end product by viable cells.
Under an IRB-approved tissue protocol, discarded human resected pancreatic tissue (500 mm^3) was attained fresh from the operating room at the University of Texas Medical Branch. The tissue was minced and plated on a collagen-coated flask (15 μg/mL, Invitrogen) with DMEM (VWR; Radnor, Pa.) supplemented with penicillin 200 U/mL, streptomycin 200 μg/mL, amphotericin B 0.25 μg/mL and gentimicin 50 μg/mL (Invitrogen, Carlsbad Calif.), 10% fetal bovine serum (Lonza, Walkersville, Md.), 1% insulin-transferrin, selenium-ethanolamine (Gibco, Grand Island, N.Y.), and 1% non-essential amino acids (Sigma-Aldrich, St. Louis, Mo.). The human PSC were isolated by the outgrowth method.^41-43 The purity of PSC culture was confirmed by immunohistochemical staining for vimentin, α-smooth muscle actin, glial fibrillar acidic protein, or Oil red O staining. Primary PSC were transformed and immortalized for use in experiments using lentiviral vectors containing SV40 Large T antigen and human telomerase (plasmid #12245 and 12246; Addgene, Cambridge, Mass.). Cultures were maintained in DMEM with 10% FBS, at 37° C. in a humidified 95% O2/5% CO2 atmosphere.
Cell proliferation assay. Transformed PSC (3×10^3) were plated in 96-well plates, in sextuplicate. […] AlamarBlue reagent (10% sample volume, DAL1025) was added to each well per Invitrogen's protocol. Fluorescence was recorded using excitation/emission wavelengths of 544/590 nm and the SpectraMax M2 Microplate Reader (Molecular Devices, Sunnyvale Calif.).
Statistical analysis. Dose-response curves were generated by plotting fluorescence or absorbance versus log (compound concentration). A best-fit curve was created using nonlinear regression, and the IC50 or EC50 determined from the graph (GraphPad Prism 5; GraphPad Software Inc., La Jolla, Calif.). To analyze continuos variables, unpaired student t-tests and one-way ANOVA with Tukey-Kramer multiple comparisons post-test (GraphPad Prism 5). Significance was set at p<0.05.

[3] = Aqueous solubility by HPLC analysis method; type: physicochemical; conditions: in the form of HCl salt

Structure (SMILES)	EC50 [1] [µM]	inhibition at 5 µM [2] [%]	inhibition at 10 µM [2] [%]	inhibition at 20 µM [2] [%]	IC50 [2] [µM]	Antiproliferative effect on PSC, result in words [2]	Concentrations inducing stellate cell toxicity [1]	Aqueous solubility compared with apigenin, result in words [3]	Aqueous solubility, saturated concentration [3] [mg/mL]
O=c1cc(-c2ccc(O)cc2)oc2cc(O)cc(O)c12 [Apigenin, 4′,5,7-trihydroxyflavone, reference compound]	24.5 ± 2.5	11	34	64	18.6 ± 1.6	–	–	–	–
COc1cc(OC)c2c(=O)cc(-c3ccc(OCC4CO4)cc3)oc2c1 (centres unmarked) [Compound 23, 5,7-Dimethoxy-2-(4-oxiranylmethoxyphenyl)-chromen-4-one]	9.6 ± 1.8	69	89	93	2.5 ± 0.6	highly potent inhibitor suppressing PSC proliferation	–	–	–
COc1cc(OC)c2c(=O)cc(-c3ccc(OCC(O)CN4CCCCC4)cc3)oc2c1 (centres unmarked) [Compound 24, 2-(4-(2-Hydroxy-3-piperidin-1-yl-propoxy)phenyl)-5,7-dimethoxy-chromen-4-one]	35.2 ± 5.5	34	65	95	8 ± 1.8	potent antiproliferative effects	greater than 25 μM	significantly improved solubility	84.1
